# Measurements as given in US8461176B2, “Enantiomerically enriched aryloazol-2-yl cyanoethylamino compounds, method of making and method of using thereof” (Merial Limited, priority 2008, dated 2013).
# Assays:
# [1] = test system: Haemonchus contortus; test: Method B: activity against Haemonchus contortus in vivo in Mongolian gerbil; set-up: species or system Mongolian gerbil (Meriones unguiculatus); settings: po, 72 h, oral gavage, read-out: reduction in nematode infection
# Method: Method B: Screening Method to Test Activity of Compounds Against Haemonchus contortus In Vivo in Mongolian Gerbil (Meriones unguiculatus).
# Mongolian gerbils, at least five weeks old, were immunosuppressed and artificially infected with ca. 1000 ensheathed Haemonchus contortus third instar larvae. Six days after infection, the Mongolian gerbils were treated by oral gavage with the test compounds, dissolved in a mixture of 2 parts DMSO and 1 part polyethylene glycol (PEG400), at doses of 100 mg/kg and dissolved in pure polyethylene glycol (PEG400) at doses of 10 and 1 mg/kg. Mongolian gerbils treated only with the placebo (2 parts DMSO and 1 part PEG400 or pure PEG400) served as controls. On day 9 (3 days after treatment) the jirds were euthanized and necropsied for recovery of parasites from the stomach. Efficacy was calculated as the average % reduction in the number of worms in each test group compared with the average number of worms from the control group. […] Compound numbers 1.001, 1.008, 1.012, 1.013 and 1.014 provided at least 95% reduction in nematode in Mongolian gerbils treated by oral gavage with test article at a dose of 100 mg/kg. Compound numbers 1.012, 1.033, 1.064, 2.008, 2.037, 2.038, 2.040, 2.041, 3.001 provided at least 95% reduction in nematode infection at a dose of 10 mg/kg. Compound numbers 1.094, 1.096, 2.048, 3.001, 3.007 and 3.009, provided at least 95% reduction in nematode infection at a dose of 1 mg/kg. Compound numbers 3.006, 3.017 and 3.019 provided at least 95% reduction in nematode infection at a dose of 0.5 mg/kg. Compound numbers 3.005, 3.011 and 3.012 provided at least 95% reduction in nematode infection at a dose of 0.3 mg/kg. The eutomer compound number 3.024 provided at least 95% reduction in nematode infection at a dose of 0.1 mg/kg.
# [2] = Feed solubility in ethanol (preparative chiral separation); format: physicochemical; settings: organic solvent or mixture, with stirring and heating
# Method: The feed solution was filtered through a 0.2 μm filter before use. The enantiomers were separated using a CHIRALPAK®AD® column (CHIRAL Technologies Inc., 20 μm particle size of amylose tris(3,5-dimethylphenylcarbamate) polysaccharide CHIRALPAK®AD® stationary phase, 5 cm internal diameter, 50 cm length at 25° C. and flow rate of 110 mL/min) with injection volume of 65 mL every 11 min. The fractions collected from the chromatographic process for each of the two chromatographic eluting peaks were concentrated using a a 20 L rotary evaporator at 40° C. and 50 mbar. After solvent removal, the products were dried to constant weight in a vacuum oven at 40° C. The target eutomer (+)-N-[2-(6-Bromo-2H-pyrazolo[4,3-b]pyridin-2-yl)-1-cyano-1-methylethyl]-4-trifluoromethoxybenzamide was isolated from the first eluting peak with a recovery yield of 89.0% (19.3 g). […] The distomer (−)-N-[2-(6-Bromo-2H-pyrazolo[4,3-b]pyridin-2-yl)-1-cyano-1-methylethyl]-4-trifluoromethoxybenzamide was isolated from the second eluting peak with a recovery yield of 94.5% (20.5 g). The percent enantiomeric excess of the distomer is 98.8% as measured via analytical chiral HPLC using a CHIRALPAK®AD® column (CHIRAL Technologies Inc., 4.6×250 mm, at 30° C., flow rate of 0.7 mL/min of EtOH mobile phase, retention time=12.5 min).
# [3] = test system: Haemonchus contortus; test: Method A: screening of activity against Haemonchus contortus L1 larvae in microtitre plate (development to L3 / motility); settings: Haemonchus contortus, 96 h, 4 days assessment; for inhibition at 0.0025 ppm: test concentration 0.0025 ppm; for inhibition at 0.04 ppm: test concentration 0.04 ppm; for inhibition at 0.6 ppm: test concentration 0.6 ppm
# Text: Method A: Screening Method to Test Activity of Compounds Against Haemonchus contortus.
# [4] = test system: Haemonchus placei; test: Method H: cattle in vivo, Haemonchus placei; settings: ivermectin alone, 0.2 mg/kg (200 μg/kg) subcutaneously
# Text: (§1) Method H: Screening Method to Test Activity of Compounds Against Haemonchus placei, Ostertagia ostertagi, Trichostrongylus axei, Cooperia punctata, Bunostomum phlebotomum, Oesophagostomum radiatum, Dictyocaulus viviparus, and Nematodirus helvetianus In Vivo in Cattle.
# (§2) Calves were challenged intra-aurally with larvae from Bunostomum phlebotomum (500-1000 L3 per animal) on Dat −56; and orally with larvae from Oesophagostomum radiatum (1,000-2,000 infective L3 per animal) on Dat −49, Nematodirus helvetianus (3,000-6,000 infective L3 per animal) on Dat −28, Haemonchus placei (5,000-7,000 infective L3 per animal) on Dat −28, Dictyocaulus viviparus (1,000-2,000 infective L3 per animal) on Dat −28, Ostertagia ostertagi (10,000-20,000 infective L3 per animal) on Dat −21, Trichostrongylus axei (10,000-20,000 infective L3 per animal) on Dat −21, Cooperia punctata (10,000-20,000 infective L3 per animal) on Dat −28, and Cooperia oncophora (10,000-20,000 infective L3 per animal) on Dat −21. The test compound was administered alone at a dose of 3 or 6 mg/kg orally or subcutaneously or subcutaneously at a dose of 6 mg/kg in combination with ivermectin at a dose of 50 mcg/kg. For oral administration, test compounds were formulated at a concentration of 10 mg/mL in DMSO/Corn oil (1:1). For subcutaneous administration, test compounds were formulated in propylene glycol/glycerol formal (60:40). All treatments were administered at Day 0. At necropsy on Day 14/15, the abomasa, small intestine and large intestine were removed and processed for parasite recovery. Nematode counts were conducted on appropriate aliquots. Efficacy was calculated for each nematode species by calculating the percent efficacy as 100[(C−T)/C], where C is the mean count among untreated controls and T is the count of the treated animals. Compound number 3.024 provided >95% efficacy against Haemonchus placei, Ostertagia ostertagi, Trichostrongylus axei, Cooperia punctata, Oesophagostomum radiatum and Nematodirus helvetianus at a dose as low as 3 mg/kg administered orally. […]
# [5] = test system: Nematodirus helvetianus; test: Method H: cattle in vivo, Nematodirus helvetianus; settings: ivermectin alone, 0.2 mg/kg (200 μg/kg) subcutaneously
# Text: as §1, §2
# [6] = test system: ivermectin-resistant Haemonchus contortus; test: Method I: sheep in vivo, ivermectin-resistant Haemonchus contortus; settings: ivermectin orally at 0.2 mg/kg
# Text: (§3) Method I: Screening Method to Test Activity of Compounds Against Ivermectin-Resistant Haemonchus contortus, Ostertagia circumcincta, and Trichostrongylus colubriformis In Vivo in Sheep.
# (§4) Sheep were challenged orally with infective 3rd stage larvae (L3) of Ostertagia circumcincta (˜3,000-6,000 infective L3 per animal) on Dat −28, Haemonchus contortus (˜2,000-4,000 infective L3 per animal) on Dat −25, and Trichostrongylus colubriformis (˜3,000-6,000 infective L3 per species per animal) on Dat −23. The inoculation schedule was designed so that nematodes were expected to be in the adult stage on Day 0. Test compounds were dissolved in a mixture of DMSO/Corn oil (1:1) at a concentration of 10 mg/mL. All treatments were administered orally once on Day 0. At sacrifice on Day 14 the abomasum, small intestine and large intestine (including cecum) were removed. Nematode counts were conducted on 10% (abomasal and small intestinal content, abomasal soak) or 20% aliquots (large intestinal content). All nematodes were speciated, or assigned to species based on location of recovery (adult females, fourth-stage larvae) for a total count per species. Efficacy was calculated as the % reduction in the mean number of worms in each test group compared with the mean number of worms recovered from the control group. […]
# [7] = test system: ivermectin-resistant Ostertagia circumcincta; test: Method I: sheep in vivo, ivermectin-resistant Ostertagia circumcincta; settings: ivermectin orally at 0.2 mg/kg
# Text: as §3, §4
# [8] = test system: ivermectin-resistant Trichostrongylus columbriformis; test: Method I: sheep in vivo, ivermectin-resistant Trichostrongylus colubriformis; settings: ivermectin orally at 0.2 mg/kg
# Text: as §3, §4
compound,measurement,setting,value
"CC(C#N)(Cn1cc2ncc(Br)cc2n1)NC(=O)c1ccc(OC(F)(F)F)cc1 (stereo not drawn) [Compound 3.011, N-[2-(6-Bromo-2H-pyrazolo[4,3-b]pyridin-2-yl)-1-cyano-1-methylethyl]-4-trifluoromethoxybenzamide]",inhibition in vivo at 0.3 mg/kg,[1],≥ 95%
same,solubility,[2],8600 µg/mL
"CC(C#N)(Cn1nc2c(Cl)cc(Cl)c(Cl)c2n1)NC(=O)c1ccc(OC(F)(F)F)cc1 (single isomer, unassigned; (+)) [Compound 1.096, (+)-N-[1-Cyano-1-methyl-2-(4,5,7-trichloro-2H-benzotriazol-2-yl)-ethyl]-4-trifluoromethoxybenzamide]",inhibition at 0.0025 ppm,[3],≥ 90%
same,inhibition in vivo at 1 mg/kg,"[1]; dose 1 mg/kg, necropsy 3 days after treatment",≥ 95%
"C[C@](C#N)(Cn1cc2ncc(Br)cc2n1)NC(=O)c1ccc(OC(F)(F)F)cc1 [Compound 3.025, (−)-N-[2-(6-Bromo-2H-pyrazolo[4,3-b]pyridin-2-yl)-1-cyano-1-methylethyl]-4-trifluoromethoxybenzamide]",inhibition at 0.3 ppm,[3]; test concentration 0.3 ppm,< 90%
same,inhibition in vivo at 0.3 mg/kg,[1],< 95%
"CC(C#N)(Cn1cc2ncc(Cl)cc2n1)NC(=O)c1ccc(OC(F)(F)F)cc1 (stereo not drawn) [Compound 3.005, N-[2-(6-Chloro-2H-pyrazolo[4,3-b]pyridin-2-yl)-1-cyano-1-methylethyl]-4-trifluoromethoxybenzamide]",inhibition in vivo at 0.3 mg/kg,[1],≥ 95%
"CC(C#N)(Cn1nc2c(Cl)cc(Cl)c(Cl)c2n1)NC(=O)c1ccc(C#N)cc1 (stereo not drawn) [Compound 1.102, N-[1-Cyano-1-methyl-2-(4,5,7-trichloro-2H-benzotriazol-2-yl)-ethyl]-4-cyanobenzamide]",inhibition at 0.04 ppm,[3],≥ 90%
"CC(C#N)(Cn1cc2c(Cl)cc(Cl)c(Cl)c2n1)NC(=O)c1ccc(Cl)cc1 (stereo not drawn) [Compound 2.061, N-[1-Cyano-1-methyl-2-(4,6,7-trichloro-2H-indazol-2-yl)ethyl]-4-chlorobenzamide]",inhibition at 0.0025 ppm,[3],≥ 90%
ivermectin [reference compound],efficacy against Haemonchus placei (ivermectin-resistant strain),[4],less than 70%
same,efficacy against Nematodirus helvetianus,[5],less than 30%
same,activity against ivermectin-resistant Haemonchus contortus,[6],almost completely inactive
same,efficacy against ivermectin-resistant Ostertagia circumcincta,[7],less than 30%
same,efficacy against ivermectin-resistant Trichostrongylus columbriformis,[8],less than 60%
"CC(C#N)(Cn1cc2c(Cl)cc(Cl)c(Cl)c2n1)NC(=O)c1ccc(Cl)cc1Cl (stereo not drawn) [Compound 2.230, 2,4-Dichloro-N-[1-cyano-1-methyl-2-(4,6,7-trichloro-2H-indazol-2-yl)ethyl]benzamide]",inhibition at 0.04 ppm,[3],≥ 90%
"CC(C#N)(Cn1cc2c(Cl)cc(Cl)c(Cl)c2n1)NC(=O)c1ccc(F)cc1F (stereo not drawn) [Compound 2.228, N-[1-Cyano-1-methyl-2-(4,6,7-trichloro-2H-indazol-2-yl)ethyl]-2,4-difluorobenzamide]",inhibition at 0.04 ppm,[3],≥ 90%
"CC(C#N)(Cn1cc2c(Cl)cc(Cl)c(Cl)c2n1)NC(=O)c1ccc(Oc2ccccc2)cc1 (stereo not drawn) [Compound 2.067, N-[1-Cyano-1-methyl-2-(4,6,7-trichloro-2H-indazol-2-yl)ethyl]-4-phenoxybenzamide]",inhibition at 0.04 ppm,[3],≥ 90%
"CC(C#N)(Cn1cc2ccnc(Br)c2n1)NC(=O)c1ccc(OC(F)(F)F)cc1 (stereo not drawn) [Compound 4.005, N-[2-(7-Bromo-2H-pyrazolo[3,4-c]pyridin-2-yl)-1-cyano-1-methylethyl]-4-trifluoromethoxybenzamide]",inhibition at 0.6 ppm,[3],≥ 90%
"CC(C#N)(Cn1cc2ncccc2n1)NC(=O)c1ccc(OC(F)(F)F)cc1 (stereo not drawn) [Compound 3.045, N-[1-Cyano-1-methyl-2-(2H-pyrazolo[4,3-b]pyridin-2-yl)ethyl]-4-trifluoromethoxybenzamide]",inhibition at 0.6 ppm,[3],≥ 90%
"CC(C#N)(Cn1cc2cc(Br)cnc2n1)NC(=O)c1ccc(OC(F)(F)F)cc1 (stereo not drawn) [Compound 5.001, N-[2-(5-Bromo-2H-pyrazolo[3,4-b]pyridin-2-yl)-1-cyano-1-methylethyl]-4-trifluoromethoxybenzamide]",inhibition at 0.6 ppm,[3],≥ 90%
"COc1ccc(C(=O)NC(C)(C#N)Cn2cc3c(Cl)cc(Cl)c(Cl)c3n2)cc1F (stereo not drawn) [Compound 2.227, N-[1-Cyano-1-methyl-2-(4,6,7-trichloro-2H-indazol-2-yl)ethyl]-3-fluoro-4-methoxybenzamide]",inhibition at 0.15 ppm,[3]; test concentration 0.15 ppm,≥ 90%
